The NIST ThermoML archive (doi:10.1021/je7003758)
± gives the expanded uncertainty stated by the source.

Experiment: xn = mol fraction of the nth substance listed
Conditions: 298.15 K, Liquid

CCCCCCCCCl [1-chlorooctane] + CN1CCCC1=O
mass density [kg/m3]
Conditions	x2 = 0.0969	x2 = 0.2014	x2 = 0.3097	x2 = 0.4076	x2 = 0.5021	x2 = 0.6022	x2 = 0.7005	x2 = 0.8007	x2 = 0.9008
100 kPa	878 ± 1.2	888.8 ± 1.1	901.2 ± 0.9	913.6 ± 0.8	926.9 ± 0.7	942.5 ± 0.6	959.8 ± 0.5	979.6 ± 0.5	1002.2 ± 0.4
500 kPa	878.3 ± 1.2	889.1 ± 1.1	901.5 ± 1	913.9 ± 0.9	927.2 ± 0.8	942.8 ± 0.6	960 ± 0.5	979.8 ± 0.5	1002.4 ± 0.4
1000 kPa	878.6 ± 1.2	889.4 ± 1.1	901.9 ± 1	914.3 ± 0.9	927.5 ± 0.8	943.1 ± 0.7	960.3 ± 0.6	980.1 ± 0.5	1002.7 ± 0.4
1500 kPa	879 ± 1.2	889.8 ± 1.1	902.3 ± 1	914.6 ± 0.9	927.8 ± 0.8	943.4 ± 0.7	960.6 ± 0.6	980.4 ± 0.5	1003 ± 0.4
2000 kPa	879.4 ± 1.2	890.2 ± 1.1	902.5 ± 1	914.9 ± 0.9	928.2 ± 0.8	943.7 ± 0.7	960.9 ± 0.6	980.7 ± 0.5	1003.2 ± 0.4
2500 kPa	879.7 ± 1.3	890.6 ± 1.1	902.9 ± 1	915.2 ± 0.9	928.5 ± 0.8	944.1 ± 0.7	961.2 ± 0.6	981 ± 0.5	1003.5 ± 0.4
2900 kPa	–	–	–	–	–	944.4 ± 0.7	–	–	–
3000 kPa	880.2 ± 1.3	890.9 ± 1.1	903.3 ± 1	915.6 ± 0.9	928.8 ± 0.8	–	961.6 ± 0.6	981.3 ± 0.5	1003.8 ± 0.4
3400 kPa	880.5 ± 1.3	–	–	–	–	–	–	–	–
3500 kPa	–	891.3 ± 1.2	903.7 ± 1	916 ± 0.9	929.1 ± 0.8	944.7 ± 0.7	961.8 ± 0.6	981.6 ± 0.5	1004.1 ± 0.4
4000 kPa	880.8 ± 1.3	891.6 ± 1.2	904 ± 1.1	916.3 ± 0.9	929.5 ± 0.8	945 ± 0.7	962.2 ± 0.6	981.9 ± 0.5	1004.4 ± 0.4
4400 kPa	–	–	–	916.6 ± 0.9	–	–	–	–	–
4500 kPa	881.2 ± 1.3	892 ± 1.2	904.4 ± 1.1	–	929.8 ± 0.8	945.3 ± 0.7	962.4 ± 0.6	982.2 ± 0.5	1004.6 ± 0.4
5000 kPa	881.6 ± 1.3	892.3 ± 1.2	904.7 ± 1.1	917 ± 1	930.2 ± 0.8	945.7 ± 0.7	962.8 ± 0.6	982.5 ± 0.5	1004.9 ± 0.4
5500 kPa	882 ± 1.4	892.7 ± 1.2	905 ± 1.1	917.3 ± 1	930.4 ± 0.9	946 ± 0.7	963.1 ± 0.6	982.8 ± 0.5	1005.2 ± 0.4
5900 kPa	–	–	–	–	930.8 ± 0.9	–	–	–	–
6000 kPa	882.3 ± 1.4	893.1 ± 1.2	905.4 ± 1.1	917.6 ± 1	–	946.3 ± 0.7	963.4 ± 0.6	983.1 ± 0.5	1005.5 ± 0.4
6500 kPa	882.7 ± 1.4	893.4 ± 1.3	905.8 ± 1.1	917.9 ± 1	931.1 ± 0.9	946.6 ± 0.7	963.7 ± 0.6	983.3 ± 0.5	1005.8 ± 0.4
7000 kPa	883.1 ± 1.4	893.8 ± 1.3	906.1 ± 1.1	918.4 ± 1	931.5 ± 0.9	946.9 ± 0.7	964 ± 0.6	983.6 ± 0.5	1006.1 ± 0.4
7400 kPa	883.4 ± 1.4	–	–	–	–	–	–	–	–
7500 kPa	–	894.1 ± 1.3	906.4 ± 1.1	918.6 ± 1	931.8 ± 0.9	947.2 ± 0.8	964.3 ± 0.6	983.9 ± 0.5	1006.4 ± 0.4
7900 kPa	883.7 ± 1.4	–	–	–	–	–	–	–	–
8000 kPa	–	894.4 ± 1.3	906.7 ± 1.2	918.9 ± 1	932.1 ± 0.9	947.5 ± 0.8	964.6 ± 0.6	984.2 ± 0.5	1006.6 ± 0.4
8500 kPa	884.1 ± 1.5	894.8 ± 1.3	907 ± 1.2	919.2 ± 1	932.5 ± 0.9	947.8 ± 0.8	964.9 ± 0.6	984.5 ± 0.5	1007 ± 0.4
9000 kPa	884.4 ± 1.5	895.1 ± 1.3	907.4 ± 1.2	919.6 ± 1	932.8 ± 0.9	948.1 ± 0.8	965.2 ± 0.6	984.8 ± 0.5	1007.2 ± 0.4
9500 kPa	884.8 ± 1.5	895.5 ± 1.3	907.8 ± 1.2	920 ± 1.1	933.1 ± 0.9	948.4 ± 0.8	965.5 ± 0.6	985.1 ± 0.5	1007.5 ± 0.4
9900 kPa	–	–	–	–	–	–	–	985.4 ± 0.5	–
10000 kPa	885.3 ± 1.5	895.9 ± 1.4	908.1 ± 1.2	920.4 ± 1.1	933.5 ± 0.9	948.8 ± 0.8	965.9 ± 0.6	–	1007.8 ± 0.4
10400 kPa	–	–	–	–	–	–	–	–	1008 ± 0.4
10500 kPa	885.6 ± 1.5	896.2 ± 1.4	908.5 ± 1.2	920.7 ± 1.1	933.8 ± 0.9	949.1 ± 0.8	966.1 ± 0.6	985.7 ± 0.5	–
10900 kPa	–	–	–	–	–	–	–	986 ± 0.5	–
11000 kPa	886 ± 1.5	896.5 ± 1.4	908.8 ± 1.2	921.1 ± 1.1	934.2 ± 0.9	949.5 ± 0.8	966.5 ± 0.6	–	1008.3 ± 0.4
11400 kPa	–	–	–	–	–	–	966.7 ± 0.6	–	–
11500 kPa	886.3 ± 1.5	896.9 ± 1.4	909.1 ± 1.2	921.3 ± 1.1	934.5 ± 1	949.7 ± 0.8	–	986.3 ± 0.5	1008.6 ± 0.4
11900 kPa	886.6 ± 1.6	–	–	–	–	–	–	–	–
12000 kPa	–	897.3 ± 1.4	909.5 ± 1.3	921.6 ± 1.1	934.8 ± 1	950.1 ± 0.8	967 ± 0.6	986.5 ± 0.5	1008.8 ± 0.4
12500 kPa	887 ± 1.6	897.6 ± 1.4	909.8 ± 1.3	922 ± 1.1	935.1 ± 1	950.4 ± 0.8	967.3 ± 0.6	986.8 ± 0.5	1009.2 ± 0.4
12900 kPa	–	–	–	–	–	950.6 ± 0.8	–	–	–
13000 kPa	887.4 ± 1.6	897.9 ± 1.4	910.1 ± 1.3	922.3 ± 1.1	935.4 ± 1	–	967.6 ± 0.6	987.1 ± 0.5	1009.4 ± 0.4
13500 kPa	887.7 ± 1.6	898.3 ± 1.5	910.4 ± 1.3	922.6 ± 1.1	935.7 ± 1	950.9 ± 0.8	967.9 ± 0.7	987.4 ± 0.5	1009.7 ± 0.4
13900 kPa	–	898.5 ± 1.5	–	–	–	–	–	–	–
14000 kPa	888.1 ± 1.6	–	910.8 ± 1.3	922.9 ± 1.2	936 ± 1	951.2 ± 0.8	968.2 ± 0.7	987.7 ± 0.5	1009.9 ± 0.4
14400 kPa	–	898.9 ± 1.5	–	–	–	–	–	–	–
14500 kPa	888.4 ± 1.6	–	911.1 ± 1.3	923.3 ± 1.2	936.3 ± 1	951.5 ± 0.8	968.4 ± 0.7	–	1010.1 ± 0.4
14600 kPa	–	–	–	–	–	–	–	988 ± 0.5	–
14900 kPa	–	–	–	–	–	–	–	–	1010.4 ± 0.4
15000 kPa	888.7 ± 1.7	899.2 ± 1.5	911.4 ± 1.3	923.5 ± 1.2	936.6 ± 1	951.8 ± 0.8	968.8 ± 0.7	988.2 ± 0.5	–
15400 kPa	–	899.5 ± 1.5	–	–	–	–	–	–	–
15500 kPa	889 ± 1.7	–	911.7 ± 1.3	923.9 ± 1.2	936.9 ± 1	952.1 ± 0.8	969 ± 0.7	988.4 ± 0.5	1010.7 ± 0.4
15900 kPa	–	–	–	–	937.2 ± 1	–	969.3 ± 0.7	–	–
16000 kPa	889.4 ± 1.7	899.9 ± 1.5	912.1 ± 1.3	924.2 ± 1.2	–	952.4 ± 0.9	–	988.7 ± 0.5	1011 ± 0.4
16500 kPa	889.7 ± 1.7	900.3 ± 1.5	912.4 ± 1.4	924.5 ± 1.2	937.5 ± 1	952.7 ± 0.9	969.6 ± 0.7	988.9 ± 0.5	1011.2 ± 0.4
17000 kPa	–	900.6 ± 1.5	912.8 ± 1.4	924.9 ± 1.2	937.8 ± 1	953 ± 0.9	970 ± 0.7	989.2 ± 0.5	1011.5 ± 0.4
17100 kPa	890.1 ± 1.7	–	–	–	–	–	–	–	–
17500 kPa	890.4 ± 1.7	900.9 ± 1.6	913.1 ± 1.4	925.2 ± 1.2	938.1 ± 1	953.2 ± 0.9	970.2 ± 0.7	989.5 ± 0.5	1011.7 ± 0.4
18000 kPa	890.7 ± 1.7	901.2 ± 1.6	913.4 ± 1.4	925.5 ± 1.2	938.4 ± 1.1	953.5 ± 0.9	970.4 ± 0.7	989.7 ± 0.5	1012 ± 0.5
18500 kPa	891.1 ± 1.8	901.5 ± 1.6	913.7 ± 1.4	925.7 ± 1.2	938.7 ± 1.1	953.8 ± 0.9	970.8 ± 0.7	990 ± 0.5	1012.2 ± 0.5
19000 kPa	891.4 ± 1.8	901.9 ± 1.6	914.1 ± 1.4	926.1 ± 1.2	939.1 ± 1.1	954.2 ± 0.9	971 ± 0.7	990.5 ± 0.5	1012.5 ± 0.5
19400 kPa	–	902.2 ± 1.6	–	926.4 ± 1.2	–	–	971.4 ± 0.7	–	–
19500 kPa	891.7 ± 1.8	–	914.4 ± 1.4	–	939.3 ± 1.1	954.5 ± 0.9	–	990.7 ± 0.5	1012.8 ± 0.5
20000 kPa	892.1 ± 1.8	902.6 ± 1.6	914.7 ± 1.4	–	939.8 ± 1.1	954.8 ± 0.9	971.7 ± 0.7	–	1013.2 ± 0.5
20100 kPa	–	–	–	926.8 ± 1.3	–	–	–	991 ± 0.5	–
